Calls of active or inactive are those of the source. Cut-off read from the data, not from the text of the source, for most assays here: actives have a measured EC50 and inactives only a lower limit.
Tests used:
Cytochrome P450 2C9 = Cytochrome P450 2C9 (Homo sapiens, UniProt P11712)
Cytochrome P450 3A4 = Cytochrome P450 3A4 (Homo sapiens, UniProt P08684);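 note: CYP3A4 tested as one member of a cytochrome P450 panel screen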
[1] = target: T1, Heat shock factor protein 1 (Mus musculus, UniProt P38532); test: inhibition of MG132-induced HSE-luciferase signal, confirmation, cell-based, NIH3T3, luminescence, dose retest (AID 2382); format: functional;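 note: NIH3T3 fibroblasts with HSF1-driven luciferase reporter stressed by proteasome inhibitor MG132; luminescence from HSF1-driven luciferase expression after 8 hours of MG132 stress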
T1 sequence (P38532 whole entry): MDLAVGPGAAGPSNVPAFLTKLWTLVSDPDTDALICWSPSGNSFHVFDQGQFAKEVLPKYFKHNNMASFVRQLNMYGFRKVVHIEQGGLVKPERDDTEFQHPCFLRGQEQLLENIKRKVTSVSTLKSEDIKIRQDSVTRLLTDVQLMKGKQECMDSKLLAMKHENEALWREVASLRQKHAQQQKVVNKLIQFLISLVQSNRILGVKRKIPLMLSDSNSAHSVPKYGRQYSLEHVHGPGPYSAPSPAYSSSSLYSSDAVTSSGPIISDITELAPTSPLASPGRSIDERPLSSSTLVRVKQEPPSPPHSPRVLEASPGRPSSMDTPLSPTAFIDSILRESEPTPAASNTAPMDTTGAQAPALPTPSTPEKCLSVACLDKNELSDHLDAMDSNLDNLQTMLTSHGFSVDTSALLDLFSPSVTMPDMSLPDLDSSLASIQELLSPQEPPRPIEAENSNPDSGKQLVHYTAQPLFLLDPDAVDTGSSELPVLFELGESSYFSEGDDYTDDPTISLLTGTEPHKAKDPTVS

[2] = inhibitors of intracellular T. cruzi replication, confirmation, NIH3T3 host cells, beta-gal luminescence (AID 2044); format: functional, cell-based;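 note: intracellular parasites grown in NIH/3T3 mouse fibroblasts as host cells; luminescent beta-galactosidase reporter signal from transgenic T. cruzi replicating inside host cells; inhibitors lower the luminescence signal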
[3] = cytotoxicity toward NIH3T3 fibroblasts, dose response, counter-screen, cell-based, ATP luminescence, mouse fibroblasts (AID 2010); format: functional;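 note: cells exposed to compound for about 90 hours before reading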
[4] = target: T2, Corticotropin-releasing factor receptor 2/Corticotropin-releasing factor-binding protein (Homo sapiens, UniProt P24387+Q13324); test: activators of CRF receptor 2 with binding protein – uHTS hits, confirmation (AID 602473); format: functional; details: read-out: EC50_Mean
T2 sequence (Q13324 whole entry): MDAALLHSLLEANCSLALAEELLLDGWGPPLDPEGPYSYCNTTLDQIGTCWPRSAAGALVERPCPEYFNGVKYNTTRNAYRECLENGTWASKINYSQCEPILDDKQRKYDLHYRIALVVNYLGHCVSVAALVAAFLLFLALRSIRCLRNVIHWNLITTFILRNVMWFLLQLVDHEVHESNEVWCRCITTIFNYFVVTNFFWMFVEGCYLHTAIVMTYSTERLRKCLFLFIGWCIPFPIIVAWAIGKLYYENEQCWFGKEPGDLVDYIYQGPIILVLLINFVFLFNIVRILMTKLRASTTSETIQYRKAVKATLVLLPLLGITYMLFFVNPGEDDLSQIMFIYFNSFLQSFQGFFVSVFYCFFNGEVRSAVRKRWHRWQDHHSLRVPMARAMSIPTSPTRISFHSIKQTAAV
T2 sequence (P24387 whole entry): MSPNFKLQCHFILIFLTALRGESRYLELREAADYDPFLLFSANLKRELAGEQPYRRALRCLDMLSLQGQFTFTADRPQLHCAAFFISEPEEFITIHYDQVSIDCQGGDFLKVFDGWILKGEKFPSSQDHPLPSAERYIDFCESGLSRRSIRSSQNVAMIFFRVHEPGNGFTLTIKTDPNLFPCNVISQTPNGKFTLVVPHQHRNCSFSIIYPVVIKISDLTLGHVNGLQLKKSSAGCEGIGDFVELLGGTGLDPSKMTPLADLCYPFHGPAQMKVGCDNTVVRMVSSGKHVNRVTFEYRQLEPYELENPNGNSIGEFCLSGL

[5] = test system: Streptococcus sp. 'group A'; test: growth inhibition of control SK(-) GAS strain, dose response, counter-screen for streptokinase expression inhibitor project, luminescence, kanamycin, BacTiterGlo, confirmation (AID 1900); format: functional, organism-based
Streptokinase A = target: T3, Streptokinase A (Streptococcus pyogenes serotype M1, UniProt P10520); test: S. pyogenes streptokinase expression inhibitors, potency, dose response, plasminogen activation absorbance, OD405 (AID 1914); format: functional, Streptococcus pyogenes M1 GAS;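 note: secreted streptokinase activity via plasminogen activation per viability signal from cell pellet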
T3 sequence (P10520 whole entry): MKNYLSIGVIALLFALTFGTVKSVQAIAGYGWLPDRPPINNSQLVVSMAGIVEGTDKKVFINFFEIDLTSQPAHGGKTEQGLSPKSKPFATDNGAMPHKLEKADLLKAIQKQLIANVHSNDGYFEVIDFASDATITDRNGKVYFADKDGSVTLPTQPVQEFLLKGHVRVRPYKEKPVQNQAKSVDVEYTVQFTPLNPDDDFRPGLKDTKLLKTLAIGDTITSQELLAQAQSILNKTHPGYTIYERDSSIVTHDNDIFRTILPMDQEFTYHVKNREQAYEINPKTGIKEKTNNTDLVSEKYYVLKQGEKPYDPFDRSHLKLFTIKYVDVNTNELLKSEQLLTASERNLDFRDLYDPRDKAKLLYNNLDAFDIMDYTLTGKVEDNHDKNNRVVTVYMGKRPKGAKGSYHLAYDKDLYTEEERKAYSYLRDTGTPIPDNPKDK

Streptococcus = test: Group A Streptococcus viability loss, dose response, counter-screen for streptokinase expression inhibitor project, luminescence, BacTiterGlo (AID 1915); format: functional, organism-based;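 note: potency for reduction of bacterial viability or growth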

Cytochrome P450 2C9, sequence (P11712 whole entry): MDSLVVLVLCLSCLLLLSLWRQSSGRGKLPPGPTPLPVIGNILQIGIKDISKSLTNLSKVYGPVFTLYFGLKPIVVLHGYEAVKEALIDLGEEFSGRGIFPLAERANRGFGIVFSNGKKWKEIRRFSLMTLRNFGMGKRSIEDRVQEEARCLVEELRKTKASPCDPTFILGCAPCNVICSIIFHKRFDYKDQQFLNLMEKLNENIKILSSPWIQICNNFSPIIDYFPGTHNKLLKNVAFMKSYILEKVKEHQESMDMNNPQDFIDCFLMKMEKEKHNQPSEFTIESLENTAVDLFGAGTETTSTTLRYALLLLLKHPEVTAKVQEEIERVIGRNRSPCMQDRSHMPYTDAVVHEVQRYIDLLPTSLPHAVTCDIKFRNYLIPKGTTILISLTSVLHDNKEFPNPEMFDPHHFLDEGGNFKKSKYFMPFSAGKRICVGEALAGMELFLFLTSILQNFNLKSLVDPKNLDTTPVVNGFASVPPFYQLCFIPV
Cytochrome P450 3A4, sequence (P08684 whole entry): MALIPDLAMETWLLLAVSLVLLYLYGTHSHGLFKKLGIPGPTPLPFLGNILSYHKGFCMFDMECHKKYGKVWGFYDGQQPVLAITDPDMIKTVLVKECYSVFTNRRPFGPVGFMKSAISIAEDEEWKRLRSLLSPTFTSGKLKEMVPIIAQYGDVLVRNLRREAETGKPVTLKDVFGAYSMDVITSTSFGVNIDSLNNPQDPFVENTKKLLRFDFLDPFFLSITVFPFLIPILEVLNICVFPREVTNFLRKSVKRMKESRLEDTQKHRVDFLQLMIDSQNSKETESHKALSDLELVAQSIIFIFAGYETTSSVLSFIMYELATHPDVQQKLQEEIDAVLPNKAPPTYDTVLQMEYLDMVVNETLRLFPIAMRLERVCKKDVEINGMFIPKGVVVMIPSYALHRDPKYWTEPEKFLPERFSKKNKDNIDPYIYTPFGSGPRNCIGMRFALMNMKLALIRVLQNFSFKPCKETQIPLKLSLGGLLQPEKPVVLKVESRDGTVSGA

O=C(NCCN1CCCCC1)c1ccc(I)cc1
AC50 (Cytochrome P450 2C9): 31.6 µM (inconclusive)

Nc1c(C(=O)NCc2ccccc2)sc2nc3c(cc12)C(=O)CCC3
AC50 (Cytochrome P450 3A4): 25.1 µM (inconclusive) | AC50 (Cytochrome P450 2C9): 1.41 µM (inconclusive)

CC(=O)N=C(Nc1ccc2ccccc2c1)Nc1nc(C)cc(C)n1
EC50 [1]: 146 µM (active)

O=C(/C=C/c1ccc([N+](=O)[O-])cc1)Oc1ccc(/C=N/NC(=O)c2ccncc2)cc1
EC50 [2]: 9.25 µM (active) | EC50 [3]: > 60 µM (not active)

Cc1ccc2c(CC(=O)Nc3sccc3C(N)=O)coc2c1
EC50 [4]: > 53 µM (inactive)

COc1ccc(-c2noc(-c3ccccc3-c3ccccc3)n2)cc1
EC50 [5]: 32.9 µM (active) | EC50 (Streptokinase A): 17.8 µM (active) | EC50 (Streptococcus): > 150 µM (not active)

C[C@H](NC(=O)c1ccc(Cl)c(Cl)c1)c1ccc(-c2ccccc2)cc1
AC50 (Cytochrome P450 2C9): 3.16 µM (inconclusive)

O=S(=O)(/N=C(/c1ccccc1Cl)N1CCOCC1)c1ccccc1
EC50 [1]: > 195 µM (not active)

CCC(=O)Nc1cc(-c2nn(CC(=O)N3CCCCC3)c(=O)c3ccccc23)ccc1N1CCOCC1
EC50 [1]: > 195 µM (not active)

Nc1c2c(nc3ccccc13)CSCC2
EC50 [2]: 3.33 µM (active) | EC50 [3]: > 30 µM (not active)

Cn1nnc2cc(C(=O)NC(C)(C)C)ccc21
EC50 [1]: 83.9 µM (active)

O=C(OC(C(=O)NCC1CCCO1)c1ccc(F)cc1)c1cccs1 (stereo not given)
EC50 [1]: > 195 µM (not active)

O=[N+]([O-])c1ccccc1Nc1cccnc1
EC50 [1]: > 195 µM (not active)

CN1CCN(c2ccncc2S(=O)(=O)N2CCN(C)CC2)CC1
AC50 (Cytochrome P450 3A4): 3.16 µM (inconclusive)

N#Cc1c(-c2ccccc2)nc(SCc2ccc(Cl)cc2)[nH]c1=O
EC50 (Streptokinase A): 5.41 µM (active)

CCOC(=O)c1ccc2ncc(C(C)=O)c(O)c2c1
EC50 [1]: > 195 µM (not active)

O=C(COc1c(Cl)cccc1Cl)Nc1ccccc1N1CCCC1
EC50 [5]: 16.4 µM (active) | EC50 (Streptokinase A): 16.1 µM (active) | EC50 (Streptococcus): > 150 µM (not active)

O=C(CNS(=O)(=O)c1ccccc1F)Nc1ccc(N2CCOCC2)cc1
EC50 [1]: > 195 µM (not active)

Cc1sc(N)c(C(=O)c2cccc(C(F)(F)F)c2)c1C
AC50 (Cytochrome P450 3A4): 12.6 µM (inconclusive)

Oc1ccc2ccccc2c1CN1CCCCC1
EC50 [4]: 3.84 µM (active)

C=CCn1c(=O)c(C(=O)NCCN(CC)CC)c(O)c2ccccc21
AC50 (Cytochrome P450 2C9): 8.91 µM (inconclusive)

NC(=O)NC(=O)CSc1nc2sc(-c3ccccc3)cc2c(=O)n1-c1ccccc1
EC50 [5]: 2.21 µM (active) | EC50 (Streptococcus): 4.54 µM (active)

CC(C)(C)c1cccc(Oc2nn[nH]n2)c1
AC50 (Cytochrome P450 3A4): 22.4 µM (inconclusive) | AC50 (Cytochrome P450 2C9): 25.1 µM (inconclusive)

CCC(C)NCCOCCOc1ccc(F)cc1 (stereo not given)
EC50 [2]: 0.806 µM (active) | EC50 [3]: 10.7 µM (active)

CCOC(=O)CC1C(=O)NCCN1S(=O)(=O)c1ccc(Cl)c(Cl)c1 (stereo not given)
AC50 (Cytochrome P450 3A4): 12.6 µM (inconclusive)

From ChEMBL document CHEMBL1201862, “PubChem BioAssay data set” (2004)
